Test results reported in US11154529B2, “Phosphaplatin liquid formulations” (Phosplatin Therapeutics Inc., priority 2016, dated 2021).

Tests used:
Type in all cases: physicochemical
[1] = Ready-to-use formulation stability at 25° C./60% RH, 5 mg/mL (R,R)-pyrodach-2 in 10 mM Sodium Phosphate Buffer, 5.2 mM Sodium Pyrophosphate at pH 7.5, 10 mL vials
Protocol: (§1) Stability data on the formulation with added pyrophosphate at 40° C./75% RH in Table 12 is even more dramatic. […] [table] [table] • Transfer 1419.6 mg±14.0 mg of dibasic sodium phosphate anhydrous to a 1-L volumetric flask. • Transfer 2298.5 mg±23.0 mg of tetrasodium pyrophosphate decahydrate into the same 1-L volumetric flask. • Fill flask to approximately 75% volume with sterile water for injection, swirl as needed to dissolve all solids. • Volumetrically transfer 8.0 mL of 1N NaOH to flask. • Dilute flask to volume with water and mix well. • Record the pH of final solution. This is the vehicle. • Determine the tare weight of a 500-mL compounding vessel with stir bar. • Transfer 2500.1 mg±25.0 mg of (R,R)-pyrodach-2 to the vessel. • Transfer 450.0 g±0.1 g of the vehicle to the vessel and stir to dissolve solids. • Determine the initial pH of the solution. • Slowly adjust the pH of the solution to 7.5±0.1 by adding additional N NaOH. • Determine the gross solution weight and dilute the solution weight to 500.0 g±0.1 g by adding additional vehicle into the compounding vessel. Density=1.00 g/mL. • Stir the final solution for an additional 5 minutes. • Determine the pH of final solution. • Pass the entire solution through a 0.22 μm PVDF Stericup filter into a sterile collection vessel. • Conduct the following in a laminar flow hood; fill 10-mL sterile tubing vials with 10 mL of solution, stoppered with a sterile Flurotec stopper, and crimp-capped with a flip-off seal. • Place vials in 40° C./75% RH and 25° C./60% RH stability chambers. HPLC method in Example 3 to monitor purity and impurities.

[2] = Ready-to-use formulation stability at 40° C./75% RH, 5 mg/mL (R,R)-pyrodach-2 in 10 mM Sodium Phosphate Buffer, 5.2 mM Sodium Pyrophosphate at pH 7.5, 10 mL vials
Protocol: as §1

[3] = Reversal of PT-112 dimer formation by added pyrophosphate in 5 mg/mL aqueous PT-112 solution at ambient temperature
Protocol: Evidence that added pyrophosphate reverses the formation of PT-112 dimer in aqueous formulations of PT-112 was shown in the following experiment. A 5 mg/mL aqueous solution of PT-112 was prepared by dissolving PT-112 in 10 mM potassium phosphate buffer containing added potassium hydroxide such that the final solution pH was ˜6.5. […] The decrease was not accompanied by the formation of the RRT 3.1-3.2 impurity; nor the formation of any new impurities, rather an increase in the concentration of PT-112 was observed.

SMILES: O=P1(O)OP(=O)(O)[O][Pt]2([NH][C@@H]3CCCC[C@H]3[NH]2)[O]1 (stereo partly drawn) [(R,R)-pyrodach-2, (R,R)-trans-1,2-cyclohexanediamine-(dihydrogenpyrophosphato)platinum(II)]
- Individual Related Substances RRT 0.28-0.29 ([1]; 1 Month): 0.10%
- Individual Related Substances RRT 0.50-0.51 ([1]; 1 Month): 0.08%
- Individual Related Substances RRT 0.58 ([1]; 1 Month): 0.39%
- Individual Related Substances RRT 0.73-0.74 ([1]; 1 Month): 0.71%
- Potency (Assay) ([1]; 1 Month): 102.2%
- Total Related Substances ([1]; 1 Month): 1.3%
- pH ([1]; 1 Month): 7.6
- Individual Related Substances RRT 0.28-0.29 ([1]; 2 Months): 0.20%
- Individual Related Substances RRT 0.50-0.51 ([1]; 2 Months): 0.15%
- Individual Related Substances RRT 0.58 ([1]; 2 Months): 0.38%
- Individual Related Substances RRT 0.73-0.74 ([1]; 2 Months): 0.92%
- Potency (Assay) ([1]; 2 Months): 103.8%
- Total Related Substances ([1]; 2 Months): 1.6%
- pH ([1]; 2 Months): 7.6
- Individual Related Substances RRT 0.28-0.29 ([1]; 3 Months): 0.17%
- Individual Related Substances RRT 0.50-0.51 ([1]; 3 Months): 0.11%
- Individual Related Substances RRT 0.58 ([1]; 3 Months): 0.43%
- Individual Related Substances RRT 0.73-0.74 ([1]; 3 Months): 0.88%
- Potency (Assay) ([1]; 3 Months): 101.4%
- Total Related Substances ([1]; 3 Months): 1.6%
- pH ([1]; 3 Months): 7.6
- Individual Related Substances RRT 0.28-0.29 ([1]; 6 Months): 0.17%
- Individual Related Substances RRT 0.50-0.51 ([1]; 6 Months): 0.12%
- Individual Related Substances RRT 0.58 ([1]; 6 Months): 0.44%
- Individual Related Substances RRT 0.73-0.74 ([1]; 6 Months): 0.81%
- Potency (Assay) ([1]; 6 Months): 102.8%
- Total Related Substances ([1]; 6 Months): 1.5%
- pH ([1]; 6 Months): 7.6
- Individual Related Substances RRT 0.28-0.29 ([1]; 9 Months): 0.18%
- Individual Related Substances RRT 0.50-0.51 ([1]; 9 Months): 0.21%
- Individual Related Substances RRT 0.58 ([1]; 9 Months): 0.42%
- Individual Related Substances RRT 0.73-0.74 ([1]; 9 Months): 0.27%
- Potency (Assay) ([1]; 9 Months): 101.7%
- Total Related Substances ([1]; 9 Months): 1.20%
- pH ([1]; 9 Months): 7.6
- Individual Related Substances PT-112 Dimer ([1]; Initial): 0.16%
- Individual Related Substances RRT 0.28-0.29 ([1]; Initial): 0.14%
- Individual Related Substances RRT 0.50-0.51 ([1]; Initial): 0.08%
- Individual Related Substances RRT 0.58 ([1]; Initial): 0.34%
- Individual Related Substances RRT 0.73-0.74 ([1]; Initial): 0.83%
- Individual Related Substances RRT 0.92 ([1]; Initial): 0.05%
- Individual Related Substances RRT 1.57 ([1]; Initial): 0.12%
- Potency (Assay) ([1]; Initial): 102.0%
- Total Related Substances ([1]; Initial): 1.7%
- pH ([1]; Initial): 7.5
- Individual Related Substances PT-112 Dimer ([2]; 1 Month): ND (ND = Not Detected, or <0.05%)
- Individual Related Substances RRT 0.28-0.29 ([2]; 1 Month): 0.10%
- Individual Related Substances RRT 0.50-0.51 ([2]; 1 Month): 0.10%
- Individual Related Substances RRT 0.58 ([2]; 1 Month): 0.41%
- Individual Related Substances RRT 0.73-0.74 ([2]; 1 Month): 0.68%
- Individual Related Substances RRT 0.92 ([2]; 1 Month): ND (ND = Not Detected, or <0.05%)
- Individual Related Substances RRT 1.57 ([2]; 1 Month): ND (ND = Not Detected, or <0.05%)
- Individual Related Substances RRT 3.66-3.71 ([2]; 1 Month): ND (ND = Not Detected, or <0.05%)
- Potency (Assay) ([2]; 1 Month): 101.6%
- Total Related Substances ([2]; 1 Month): 1.3%
- pH ([2]; 1 Month): 7.6
- Individual Related Substances PT-112 Dimer ([2]; 2 Months): ND (ND = Not Detected, or <0.05%)
- Individual Related Substances RRT 0.28-0.29 ([2]; 2 Months): 0.19%
- Individual Related Substances RRT 0.50-0.51 ([2]; 2 Months): 0.19%
- Individual Related Substances RRT 0.58 ([2]; 2 Months): 0.41%
- Individual Related Substances RRT 0.73-0.74 ([2]; 2 Months): 0.88%
- Individual Related Substances RRT 0.92 ([2]; 2 Months): ND (ND = Not Detected, or <0.05%)
- Individual Related Substances RRT 1.57 ([2]; 2 Months): ND (ND = Not Detected, or <0.05%)
- Individual Related Substances RRT 3.66-3.71 ([2]; 2 Months): 0.07%
- Potency (Assay) ([2]; 2 Months): 103.8%
- Total Related Substances ([2]; 2 Months): 1.7%
- pH ([2]; 2 Months): 7.6
- Individual Related Substances PT-112 Dimer ([2]; 3 Months): ND (ND = Not Detected, or <0.05%)
- Individual Related Substances RRT 0.28-0.29 ([2]; 3 Months): 0.16%
- Individual Related Substances RRT 0.50-0.51 ([2]; 3 Months): 0.16%
- Individual Related Substances RRT 0.58 ([2]; 3 Months): 0.48%
- Individual Related Substances RRT 0.73-0.74 ([2]; 3 Months): 0.86%
- Individual Related Substances RRT 0.92 ([2]; 3 Months): ND (ND = Not Detected, or <0.05%)
- Individual Related Substances RRT 1.57 ([2]; 3 Months): ND (ND = Not Detected, or <0.05%)
- Individual Related Substances RRT 3.66-3.71 ([2]; 3 Months): 0.11%
- Potency (Assay) ([2]; 3 Months): 101.5%
- Total Related Substances ([2]; 3 Months): 1.8%
- pH ([2]; 3 Months): 7.5
- Individual Related Substances PT-112 Dimer ([2]; 6 Months): ND (ND = Not Detected, or <0.05%)
- Individual Related Substances RRT 0.28-0.29 ([2]; 6 Months): 0.17%
- Individual Related Substances RRT 0.50-0.51 ([2]; 6 Months): 0.22%
- Individual Related Substances RRT 0.58 ([2]; 6 Months): 0.47%
- Individual Related Substances RRT 0.73-0.74 ([2]; 6 Months): 0.81%
- Individual Related Substances RRT 0.92 ([2]; 6 Months): ND (ND = Not Detected, or <0.05%)
- Individual Related Substances RRT 1.57 ([2]; 6 Months): ND (ND = Not Detected, or <0.05%)
- Individual Related Substances RRT 3.66-3.71 ([2]; 6 Months): 0.18%
- Potency (Assay) ([2]; 6 Months): 102.8%
- Total Related Substances ([2]; 6 Months): 1.9%
- pH ([2]; 6 Months): 7.5
- Individual Related Substances PT-112 Dimer ([2]; Initial): 0.16%
- Individual Related Substances RRT 0.28-0.29 ([2]; Initial): 0.14%
- Individual Related Substances RRT 0.50-0.51 ([2]; Initial): 0.08%
- Individual Related Substances RRT 0.58 ([2]; Initial): 0.34%
- Individual Related Substances RRT 0.73-0.74 ([2]; Initial): 0.83%
- Individual Related Substances RRT 0.92 ([2]; Initial): 0.05%
- Individual Related Substances RRT 1.57 ([2]; Initial): 0.12%
- Individual Related Substances RRT 3.66-3.71 ([2]; Initial): ND (ND = Not Detected, or <0.05%)
- Potency (Assay) ([2]; Initial): 102.0%
- Total Related Substances ([2]; Initial): 1.7%
- pH ([2]; Initial): 7.5
- PT-112 dimer level ([3]; 5 mg/mL in 10 mM potassium phosphate, pH ~6.5, about 24 hours at ambient temperature): about 1.02%
- PT-112 dimer level ([3]; adjusted to ~pH 7.5 plus 0.5 eq. of pyrophosphate, after 9 days at ambient temperature): effectively non-detectable level
- PT-112 dimer concentration ([3]; adjusted to ~pH 7.5 with potassium hydroxide, 7 day period at ambient temperature, no pyrophosphate): progressively decrease
- PT-112 dimer level ([3]; in the API): about 0.33%
